Measurements taken from patent publication US20240368133A1, “Compounds for the Treatment of Pain, in Particular, Neuropathic Pain, and/or Other Diseases or Disorders that are Associated with AT2R and/or AT2R Mediated Signaling” (Confo Therapeutics N.V., priority 2021, published 2024).

Experiments:
human AT2R fused to Cb23 = human AT2R fused to Cb23 (Homo sapiens, UniProt P50052); assay: Radioligand binding assay, displacement of 125I-[Sar1, Ile8]-Angiotensin II, hAT2R Cb23; details: displacement of 125I-[Sar1, Ile8]-Angiotensin II, human AT2R fused to Cb23, HEK-293 cell membrane preparations; read-out: Binding affinity on hAT2R_Cb23 IC50
How it was run: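 Membranes from HEK-293 cells expressing human AT2R fused to Cb23 were incubated with 0.05 nM 125I-[Sar1, Ile8]-Angiotensin II in 100 μL buffer (50 mM Tris, 5 mM MgCl2, 1 mM EDTA, 0.1% BSA, pH 7.4) for one hour at 25° C. Ligands were tested as eight-point dose-response curves in duplicate, with C21 and Angiotensin II as references.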

human AT1R = human AT1R (Homo sapiens (Human), UniProt P30556); assay: Counterscreen radioligand binding assay, displacement of 125I-[Sar1, Ile8]-Angiotensin II, hAT1R WT; details: 125I-[Sar1, Ile8]-Ang II, semi-quantitative score; for inhibition at 1 µM: compound at 1 μM, read-out: % Displaced radioligand at 1 μM; for inhibition at 10 µM: compound at 10 μM, read-out: % Displaced radioligand at 10 μM
How it was run: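 Compounds displaced 0.05 nM 125I-[Sar1, Ile8]-Ang II from human AT1R in HEK-293 membranes (1 h, 25° C; Tris/MgCl2/EDTA/BSA buffer, pH 7.4). Readout was filtration and scintillation counting, with non-specific binding set by 10 μM [Sar1]-Ang II. Values are % displacement at 1 μM and […], or IC50 from eight-point four-parameter fits.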

Chain of human AT1R (P30556 whole entry): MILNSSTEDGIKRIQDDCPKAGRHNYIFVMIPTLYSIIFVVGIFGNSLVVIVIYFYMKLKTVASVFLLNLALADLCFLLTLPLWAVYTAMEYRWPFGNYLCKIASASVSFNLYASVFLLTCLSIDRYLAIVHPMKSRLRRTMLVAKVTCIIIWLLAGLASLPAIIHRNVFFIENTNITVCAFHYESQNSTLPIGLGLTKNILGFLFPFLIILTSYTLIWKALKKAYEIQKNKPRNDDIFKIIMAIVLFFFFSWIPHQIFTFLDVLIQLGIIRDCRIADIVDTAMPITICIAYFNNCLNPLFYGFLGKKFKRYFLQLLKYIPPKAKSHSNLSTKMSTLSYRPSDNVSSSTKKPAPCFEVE
Chain of human AT2R fused to Cb23 (P50052 whole entry, looked up, the tested form may be a part): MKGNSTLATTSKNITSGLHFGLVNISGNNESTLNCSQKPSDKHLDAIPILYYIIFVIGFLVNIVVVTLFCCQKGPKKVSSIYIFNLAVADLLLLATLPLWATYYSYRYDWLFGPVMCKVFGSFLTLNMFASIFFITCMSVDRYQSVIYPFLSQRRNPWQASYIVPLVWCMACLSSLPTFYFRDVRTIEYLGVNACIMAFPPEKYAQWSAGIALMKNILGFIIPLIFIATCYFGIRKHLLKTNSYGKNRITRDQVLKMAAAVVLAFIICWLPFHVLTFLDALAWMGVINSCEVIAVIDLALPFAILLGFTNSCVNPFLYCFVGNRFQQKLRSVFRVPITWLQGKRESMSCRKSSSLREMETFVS

SMILES	IC50 (human AT2R fused to Cb23) [nM]	inhibition at 1 µM (human AT1R) [%]	inhibition at 10 µM (human AT1R) [%]
CC(C)Oc1cc(N2CCN(Cc3cccnn3)CC2)c(-c2nn[nH]n2)cc1C1CC1 [Compound A-160, 3-[[4-[4-cycloprop-yl-5-isopropoxy-2-(2H-tetrazol-5-yl)-phenyl]piperazin-1-yl]methyl]pyrid-azine]	4940	< 30	< 30
CC(C)Oc1cc(C2CC2)c(-c2nn[nH]n2)c(N2CCN(Cc3cccnn3)CC2)c1 [Compound A-161, 3-[[4-[3-cycloprop-yl-5-isopropoxy-2-(2H-tetrazol-5-yl)-phenyl]piperazin-1-yl]methyl]pyrid-azine]	1460	< 30	< 30
CC(C)Cc1cc(N2CCN(Cc3cccnn3)CC2)c(-c2nn[nH]n2)cc1F [Compound A-163, 3-[[4-[4-fluoro-5-isobutyl-2-(2H-tetrazol-5-yl)phen-yl]piperazin-1-yl]-methyl]pyridazine]	3320	< 30	< 30
CC(C)Cc1cc(F)c(-c2nn[nH]n2)c(N2CCN(Cc3cccnn3)CC2)c1 [Compound A-164, 3-[[4-[3-fluoro-5-isobutyl-2-(2H-tetrazol-5-yl)phen-yl]piperazin-1-yl]-methyl]pyridazine]	1300	< 30	< 30
CC(C)Cc1ccc(-c2nn[nH]n2)c(N2CCN(Cc3cccnn3)CC2)c1F [Compound A-165, 3-[[4-[2-fluoro-3-isobutyl-6-(2H-tetrazol-5-yl)phen-yl]piperazin-1-yl]-methyl]pyridazine]	681	< 30	< 30
Cc1cc(CC(C)C)cc(N2CCN(Cc3cccnn3)CC2)c1-c1nn[nH]n1 [Compound A-167, 3-[[4-[5-isobutyl-3-methyl-2-(2H-tetrazol-5-yl)phen-yl]piperazin-1-yl]-methyl]pyridazine]	32.6	< 30	< 30
CC(C)Cc1cc(C2CC2)c(-c2nn[nH]n2)c(N2CCN(Cc3cccnn3)CC2)c1 [Compound A-169, 3-[[4-[3-cycloprop-yl-5-isobutyl-2-(2H-tetrazol-5-yl)phen-yl]piperazin-1-yl]-methyl]pyridazine]	25.3	< 30	< 30
CNc1cc(-c2nn[nH]n2)c(N2CCN(Cc3cccnn3)CC2)cc1CC(C)C [Compound A-170, 2-isobutyl-N-meth-yl-4-[4-(pyridazin-3-ylmethyl)piper-azin-1-yl]-5-(2H-tetrazol-5-yl)aniline]	12100	< 30	< 30
CNc1cc(CC(C)C)cc(N2CCN(Cc3cccnn3)CC2)c1-c1nn[nH]n1 [Compound A-171, 5-isobutyl-N-meth-yl-3-[4-(pyridazin-3-ylmethyl)piper-azin-1-yl]-2-(2H-tetrazol-5-yl)aniline]	15.8	< 30	< 30
CCNc1cc(-c2nn[nH]n2)c(N2CCN(Cc3cccnn3)CC2)cc1CC(C)C [Compound A-172, N-ethyl-2-isobutyl-4-[4-(pyridazin-3-ylmethyl)piperazin-1-yl]-5-(2H-tetrazol-5-yl)aniline]	3520	< 30	< 30
CC(C)Cc1cc(F)c(-c2nn[nH]n2)c(N2CCN(Cc3cccnn3)[C@H](C)C2)c1 [Compound A-175, 3-[[(2R)-4-[3-fluoro-5-isobutyl-2-(2H-tetrazol-5-yl)phenyl]-2-meth-yl-piperazin-1-yl]-methyl]pyridazine]	322	< 30	< 30
CC(C)Cc1ccc(-c2nn[nH]n2)c(N2CCN(Cc3cccnn3)[C@@H](C)C2)c1F [Compound A-176, 3-[[(2S)-4-[2-fluoro-3-isobutyl-6-(2H-tetrazol-5-yl)phenyl]-2-methyl-piperazin-1-yl]methyl]pyridazine]	28.7	< 30	< 30
CC(C)Cc1cnc(-c2nn[nH]n2)c(N2CCN(Cc3cccnn3)[C@@H](C)C2)c1 [Compound A-177, 3-[[(2S)-4-[5-isobutyl-2-(2H-tetrazol-5-yl)-3-pyridyl]-2-methyl-piperazin-1-yl]methyl]pyridazine]	585	< 30	< 30
CC(C)Cc1cc(F)c(-c2nn[nH]n2)c(N2CCN(Cc3cccnn3)C(C(C)C)C2)c1 (stereo not drawn) [Compound A-179, 3-[[4-[3-fluoro-5-isobutyl-2-(2H-tetrazol-5-yl)phenyl]-2-isopropyl-piperazin-1-yl]methyl]pyridazine]	953	< 30	< 30
CC(C)Cc1cc(F)c(-c2nn[nH]n2)c(N2CCN(Cc3cccnn3)CC2C)c1 (stereo not drawn) [Compound A-180, 3-[[4-[3-fluoro-5-isobutyl-2-(2H-tetrazol-5-yl)phenyl]-3-methyl-piperazin-1-yl]methyl]pyridazine]	3.95	< 30	< 30
CC(C)Cc1cc(F)c(-c2nn[nH]n2)c(N2CCN(Cc3cccnn3)C(C)(C)C2)c1 [Compound A-182, 3-[[4-[3-fluoro-5-isobutyl-2-(2H-tetrazol-5-yl)phenyl]-2,2-dimethyl-piperazin-1-yl]methyl]pyridazine]	18.6	< 30	< 30
CC(C)Cc1cc(F)c(-c2nn[nH]n2)c(N2C[C@@H](C)N(Cc3cccnn3)[C@H](C)C2)c1 [Compound A-185, 3-[[(2R,6R)-4-[3-fluoro-5-isobutyl-2-(2H-tetrazol-5-yl)-phenyl]-2,6-dimeth-yl-piperazin-1-yl]-methyl]pyridazine]	69.6	< 30	< 30
CC(C)Cc1cc(F)c(-c2nn[nH]n2)c(N2C[C@@H](C)N(Cc3cccnn3)[C@@H](C)C2)c1 [Compound A-186, 3-[[(2S,6R)-4-[3-fluoro-5-isobutyl-2-(2H-tetrazol-5-yl)-phenyl]-2,6-dimeth-yl-piperazin-1-yl]-methyl]pyridazine]	18.3	< 30	< 30
CC(C)Cc1cc(F)c(-c2nn[nH]n2)c(N2C[C@H](C)N(Cc3cccnn3)[C@@H](C)C2)c1 [Compound A-187, 3-[[(2S,6S)-4-[3-fluoro-5-isobutyl-2-(2H-tetrazol-5-yl)-phenyl]-2,6-dimeth-yl-piperazin-1-yl]-methyl]pyridazine]	7.26	< 30	< 30
CC(C)Cc1cc(F)c(-c2nn[nH]n2)c(N2CCN(Cc3cccnn3)C(C)C2C)c1 (stereo not drawn) [Compound A-188, 3-[[4-[3-fluoro-5-isobutyl-2-(2H-tetrazol-5-yl)phen-yl]-2,3-dimethyl-piperazin-1-yl]-methyl]pyridazine]	13.9	< 30	< 30
CC(C)Cc1cc(F)c(-c2nn[nH]n2)c(N2CC3CC2CN3Cc2cccnn2)c1 (stereo not drawn) [Compound A-189, 2-[3-fluoro-5-isobutyl-2-(2H-tetrazol-5-yl)phen-yl]-5-(pyridazin-3-ylmethyl)-2,5-di-azabicyclo[2.2.1]-heptane]	2650	< 30	< 30
CC(C)Cc1cc(F)c(-c2nn[nH]n2)c(N2CC3CCC(C2)N3Cc2cccnn2)c1 [Compound A-190, 3-[3-fluoro-5-isobutyl-2-(2H-tetrazol-5-yl)phen-yl]-8-(pyridazin-3-ylmethyl)-3,8-diaza-bicyclo[3.2.1]octane]	1350	< 30	< 30
CC(C)Cc1cc(F)c(-c2nn[nH]n2)c(N2CCN(Cc3cc(Cl)ccn3)CC2)c1 [Compound A-191, 1-[(4-chloro-2-pyridyl)methyl]-4-[3-fluoro-5-isobutyl-2-(2H-tetrazol-5-yl)phenyl]piperazine]	53.1	< 30	< 30
CC(C)Cc1cc(F)c(-c2nn[nH]n2)c(N2CCN(Cc3ccc(Cl)cn3)CC2)c1 [Compound A-192, 1-[(5-chloro-2-pyridyl)methyl]-4-[3-fluoro-5-isobutyl-2-(2H-tetrazol-5-yl)phenyl]piperazine]	519	< 30	< 30
CC(C)Cc1cc(F)c(-c2nn[nH]n2)c(N2CCN(Cc3ncccc3Cl)CC2)c1 [Compound A-193, 1-[(3-chloro-2-pyridyl)methyl]-4-[3-fluoro-5-isobutyl-2-(2H-tetrazol-5-yl)phenyl]piperazine]	389	< 30	< 30
COc1ccc(CN2CCN(c3cc(CC(C)C)cc(F)c3-c3nn[nH]n3)CC2)nc1 [Compound A-194, 1-[3-fluoro-5-isobutyl-2-(2H-tetrazol-5-yl)phenyl]-4-[(5-methoxy-2-pyridyl)methyl]piperazine]	737	< 30	< 30
CC(C)Cc1cc(F)c(-c2nn[nH]n2)c(N2CCN(Cc3ccc(F)cn3)CC2)c1 [Compound A-195, 1-[3-fluoro-5-isobutyl-2-(2H-tetrazol-5-yl)phen-yl]-4-[(5-fluoro-2-pyridyl)methyl]-piperazine]	537	< 30	< 30
